From patent publication US6479435B1, “Diaryl ethers and processes for their preparation and herbicidal and desiccant compositions containing them” (ISK Americas Incorporated, priority 1997, dated 2002)

How the values were obtained:
Assay type in all cases: in vivo
[1] = tested on: field corn (Zea mays L., var. Dekalb 535, CORN); assay: Post-emerge greenhouse test, crop damage rating; conditions: 1000 g al/ha, 14 days after application
Source text: (§1) A standard greenhouse herbicide activity screening system was used to evaluate the herbicidal efficacy and crop safety of these test compounds. Six broadleaf weed species including redroot pigweed (Amaranthus retroflexus, AMARE), velvetleaf (Abutilon theophrasti, ABUTH), sicklepod (Cassia obtusifolia, CASOB), ivyleaf morningglory (Ipomoea hederacea, IPOHE), lambsquarters (Chenopodium album, CHEAL) and common ragweed (Ambrosia artemisiifolia L., AMBEL) were used as test species. Four grass weed species including green foxtail (Setaria viridis, SETVI), barnyardgrass (Echinochloa crusgalli, ECHCG), Johnsongrass (Sorghum halepense, SORHA), and large crabgrass (Digitaria sanguinalis, DIGSA) were also used. In addition, three crop species, field corn (Zea mays L., var. Dekalb 535, CORN), soybean (Glycine max L., var. Pella 86, SOY), and upland rice (Oryza sp., var.Tebonnet, RICE) were included.
(§2) All test compounds were dissolved in acetone and applied to the test units in a volume of 187 l/ha. Test materials were applied at rates ranging from 125 g ai/ha to 1000 g ai/ha using a track sprayer equipped with a TJ8001E even flow flat fan spray nozzle. Plants were arranged on a shelf so that the top of the canopy (post-emerge) or top of the soil surface (pre-emerge) was 40-45 cm below the nozzle. Pressurized air was used to force the test solution through the nozzle as it was mechanically advanced (via electrically driven chain drive) over the top of all test plants/pots. This application simulates a typical commercial field herbicide application.
(§3) In the post-emerge test, a commercial non-ionic surfactant was also included (0.25% v/v) to enhance wetting of the leaf surfaces Qf target plants at rates ranging from 63 g ai/ha to 1000 g ai/ha. For post-emerge tests, seeds were planted 8-21 days prior to the test to allow emergence and good foliage development prior to application of the test substances. At the time of the post-emerge application, plants of all species were usually at the 2-3 leaf stage of development. Post-emerge test units were always bottom-watered.
(§4) At 14 days after application of the test materials, phytotoxicity ratings were recorded. A rating scale of 0-100 was used as previously described in Research Methods in Weed Science, 2nd edition, B. Truelove, Ed., Southern Weed Science Society, Auburn University, Auburn, Ala., 1977. Briefly, “0” corresponds to no damage and “100” corresponds to complete death of all plants in the test unit. This scale was used both to determine efficacy against weed species and damage to crop species. Herbicide activity data for various compounds of this invention, which are shown by compound number in Tables 1-9, are shown in Tables 13 and 14.

[2] = tested on: upland rice (Oryza sp., var.Tebonnet, RICE); assay: Post-emerge greenhouse test, crop damage rating; conditions: 1000 g al/ha, 14 days after application
Source text: as §1, §2, §3, §4

[3] = tested on: lambsquarters (Chenopodium album, CHEAL); assay: Post-emerge greenhouse herbicide test, phytotoxicity rating; conditions: 1000 g al/ha, 14 days after application
Source text: as §1, §2, §3, §4

[4] = tested on: green foxtail (Setaria viridis, SETVI); assay: as above; conditions: 1000 g al/ha, 14 days after application
Source text: as §1, §2, §3, §4

[5] = tested on: ivyleaf morningglory (Ipomoea hederacea, IPOHE); assay: as above; conditions: 1000 g al/ha, 14 days after application
Source text: as §1, §2, §3, §4

[6] = tested on: redroot pigweed (Amaranthus retroflexus, AMARE); assay: as above; conditions: 1000 g al/ha, 14 days after application
Source text: as §1, §2, §3, §4

[7] = tested on: sicklepod (Cassia obtusifolia, CASOB); assay: as above; conditions: 1000 g al/ha, 14 days after application
Source text: as §1, §2, §3, §4

[8] = tested on: velvetleaf (Abutilon theophrasti, ABUTH); assay: as above; conditions: 1000 g al/ha, 14 days after application
Source text: as §1, §2, §3, §4

[9] = tested on: Johnsongrass (Sorghum halepense, SORHA); assay: as above; conditions: 1000 g al/ha, 14 days after application
Source text: as §1, §2, §3, §4

[10] = tested on: large crabgrass (Digitaria sanguinalis, DIGSA); assay: as above; conditions: 1000 g al/ha, 14 days after application
Source text: as §1, §2, §3, §4

[11] = tested on: barnyardgrass (Echinochloa crusgalli, ECHCG); assay: as above; conditions: 1000 g al/ha, 14 days after application
Source text: as §1, §2, §3, §4

[12] = tested on: field corn (Zea mays L., var. Dekalb 535, CORN); assay: Pre-emerge greenhouse test, crop damage rating; conditions: 1000 g ai/ha, 14 days after application, rating scale 0-100
Source text: as §1
(§5) All plants were grown in 10 cm square plastic pots which were filled with a sandy loam soil mix. For preemerge tests, seeds were planted one day prior to application of the test compounds. Immediately after application, test units of the pre-emerge applications were watered at the soil surface to incorporate the test materials. Subsequently, these test units were bottom-watered.
as §2, §4

[13] = tested on: upland rice (Oryza sp., var.Tebonnet, RICE); assay: Pre-emerge greenhouse test, crop damage rating; conditions: 1000 g ai/ha, 14 days after application, rating scale 0-100
Source text: as §1, §5, §2, §4

[14] = tested on: soybean (Glycine max L., var. Pella 86, SOY); assay: Pre-emerge greenhouse test, crop damage rating; conditions: 1000 g ai/ha, 14 days after application, rating scale 0-100
Source text: as §1, §5, §2, §4

[15] = tested on: soybean (Glycine max L., var. Pella 86, SOY); assay: Post-emerge greenhouse test, crop damage rating; conditions: 1000 g al/ha, 14 days after application
Source text: as §1, §2, §3, §4

[16] = tested on: lambsquarters (Chenopodium album, CHEAL); assay: Pre-emerge greenhouse herbicide test, phytotoxicity rating; conditions: 1000 g ai/ha, 14 days after application, rating scale 0-100
Source text: as §1, §5, §2, §4

[17] = tested on: green foxtail (Setaria viridis, SETVI); assay: as above; conditions: 1000 g ai/ha, 14 days after application, rating scale 0-100
Source text: as §1, §5, §2, §4

[18] = tested on: ivyleaf morningglory (Ipomoea hederacea, IPOHE); assay: as above; conditions: 1000 g ai/ha, 14 days after application, rating scale 0-100
Source text: as §1, §5, §2, §4

[19] = tested on: redroot pigweed (Amaranthus retroflexus, AMARE); assay: as above; conditions: 1000 g ai/ha, 14 days after application, rating scale 0-100
Source text: as §1, §5, §2, §4

[20] = tested on: sicklepod (Cassia obtusifolia, CASOB); assay: as above; conditions: 1000 g ai/ha, 14 days after application, rating scale 0-100
Source text: as §1, §5, §2, §4

[21] = tested on: velvetleaf (Abutilon theophrasti, ABUTH); assay: as above; conditions: 1000 g ai/ha, 14 days after application, rating scale 0-100
Source text: as §1, §5, §2, §4

[22] = tested on: Johnsongrass (Sorghum halepense, SORHA); assay: as above; conditions: 1000 g ai/ha, 14 days after application, rating scale 0-100
Source text: as §1, §5, §2, §4

[23] = tested on: large crabgrass (Digitaria sanguinalis, DIGSA); assay: as above; conditions: 1000 g ai/ha, 14 days after application, rating scale 0-100
Source text: as §1, §5, §2, §4

[24] = tested on: barnyardgrass (Echinochloa crusgalli, ECHCG); assay: as above; conditions: 1000 g ai/ha, 14 days after application, rating scale 0-100
Source text: as §1, §5, §2, §4

Row | Structure (SMILES) | CORN crop damage rating (0-100) [1] | RICE crop damage rating (0-100) [2] | CHEAL phytotoxicity rating (0-100) [3] | SETVI phytotoxicity rating (0-100) [4] | IPOHE phytotoxicity rating (0-100) [5] | AMARE phytotoxicity rating (0-100) [6] | CASOB phytotoxicity rating (0-100) [7] | ABUTH phytotoxicity rating (0-100) [8] | SORHA phytotoxicity rating (0-100) [9] | DIGSA phytotoxicity rating (0-100) [10] | ECHCG phytotoxicity rating (0-100) [11] | crop damage rating CORN [12] | crop damage rating RICE [13] | crop damage rating SOY [14] | SOY crop damage rating (0-100) [15] | phytotoxicity rating CHEAL [16] | phytotoxicity rating SETVI [17] | phytotoxicity rating IPOHE [18] | phytotoxicity rating AMARE [19] | phytotoxicity rating CASOB [20] | other results
1 | O=c1cc2n(c(=O)n1-c1cc(Oc3ccccc3[N+](=O)[O-])c(Cl)cc1F)CCC2 [Compound 5-1] | 0 | 10 | 80 | 20 | 90 | 30 | 10 | 100 | 10 | 0 | 30 | 5 | 70 | 55 | 40 | 100 | 99 | 70 | 99 | 40 | phytotoxicity rating ABUTH [21]: 100; phytotoxicity rating SORHA [22]: 90; phytotoxicity rating DIGSA [23]: 100; phytotoxicity rating ECHCG [24]: 95
2 | O=c1cc2n(c(=O)n1-c1cc(Oc3ccc([N+](=O)[O-])cc3)c(Cl)cc1F)CCC2 [Compound 5-2] | 0 | 10 | 40 | 10 | 40 | 20 | 0 | 70 | 0 | 0 | 0 | 0 | 50 | 10 | 15 | 100 | 90 | 50 | 40 | 0 | phytotoxicity rating ABUTH [21]: 100; phytotoxicity rating SORHA [22]: 80; phytotoxicity rating DIGSA [23]: 70; phytotoxicity rating ECHCG [24]: 50
3 | Nc1ccc(Oc2cc(-n3c(=O)cc4n(c3=O)CCC4)c(F)cc2Cl)cc1 [Compound 5-3] | 0 | 0 | 0 | 0 | 0 | 0 | 0 | 0 | 0 | 0 | 0 | 0 | 20 | 40 | 0 | 0 | 20 | 0 | 100 | 10 | phytotoxicity rating ABUTH [21]: 99; phytotoxicity rating SORHA [22]: 40; phytotoxicity rating DIGSA [23]: 70; phytotoxicity rating ECHCG [24]: 0
